Holding throughout (assay type): in vivo
One test concerns Spodoptera frugiperda. The test can be described thus: Spodoptera frugiperda spray test. The settings on record: in Zea mays, 168 h. In outline: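 Seven-day percent mortality of larvae feeding on Zea mays leaf sections sprayed with test compound. Dilutions were made in water holding 1000 ppm emulsifier.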
The next test concerns Rhipicephalus sanguineus. Nature of the test: Rhipicephalus sanguineus in-vitro contact test with adult brown dog ticks. Conditions: Rhipicephalus sanguineus; 5 μg/cm^2 (=500 g/ha), after 48 hours; read-out: efficacy (ticks dead or moribund). Summed up:
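Compound in acetone coated onto inner walls of glass tubes; 900 ppm gives 5 μg/cm^2. Five to ten adult ticks held 48 h at room temperature, then heated at 45-50° C. up to 5 min; ticks unable to climb away scored dead or moribund, efficacy as % dead/moribund.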

Test [1] concerns Anopheles funestus strain FUMOZ-R. Nature of the test: Anopheles funestus test (ANPHFU surface treatment & contact assay). Conditions: surface concentration 20 mg/m^2, 30 minutes exposure, 24 hours after contact, read-out: efficacy (mortality). In outline: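 Compound dissolved in acetone (2 mg/ml) with 2000 ppm rapeseed oil methyl ester, dried onto glazed tile; adult Anopheles funestus FUMOZ-R exposed for 30 minutes. Percent mortality scored 24 hours after contact.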

For test [2], the system named is cattle ticks (Boophilus microplus) strane Parhurst, SP-resistant. Nature of the test: Boophilus microplus dip test. The settings on record: 100 ppm, egg deposition after 7 days. The method, then:
Boophilus microplus—Dip Test
Test animal: cattle ticks (Boophilus microplus) strane Parhurst, SP-resistant
Solvent: dimethyl sulfoxide
To produce a suitable preparation of active compound, 10 mg of active compound are dissolved in 0.5 ml solvent, and the concentrate is diluted with water to the desired concentration.
This compound solution is pipetted into tubes. 8-10 engorged, adult, female cattle ticks (Boophilus microplus) are placed in perforated tubes. These tubes are immersed in the aqueous compound solution until the ticks are completely moistened. After the liquid has drained off, the ticks are transferred to a filter paper in a plastic tray and stored in a climate chamber.
After 7 days egg deposition of fertile eggs is monitored. Eggs where fertility is not visible are stored in a climate chamber till hatching after about 42 days. An efficacy of 100% means all eggs are infertile; 0% means all eggs are fertile.

Another test concerns Tetranychus urticae. The test can be described thus: Tetranychus urticae spray test OP-resistant. The settings on record: Tetranychus urticae, foliar, 144 h, French bean leaf disks, after 6 days. The method, then:
Tetranychus urticae—Spray Test OP-Resistant
To produce a suitable preparation of active compound, 1 part by weight of active compound is mixed with the stated amount of solvents and is diluted with water, containing an emulsifier concentration of 1000 ppm, to the desired concentration. Further test concentrations are prepared by dilution with emulsifier containing water.
French bean (Phaseolus vulgaris) leaf disks infected with all instars of the two spotted spidermite (Tetranychus urticae), are sprayed with a preparation of the active ingredient of the desired concentration.
After 6 days mortality in % is determined. 100% means all spider mites have been killed and 0% means none of the spider mites have been killed.

For test [3], the system named is Musca domestica strain WHO-N. Nature of the test: Musca domestica test (MUSCDO surface treatment & contact assay). Conditions: 24 hours after contact, read-out: efficacy (mortality); for mortality at 20 mg/m2: surface concentration 20 mg/m^2, 30 minutes exposure. Summed up:
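Compound was dissolved in acetone (2 mg/ml) with 2000 ppm rapeseed oil methyl ester and pipetted onto glazed tiles. After the acetone evaporated, adult WHO-N flies were exposed to the dried surface for 30 minutes. Percent mortality was recorded 24 hours after contact.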

By mortality is commonly meant the share of the test organisms that died. Regarding `C[C@@H](NC(=O)c1cc(Cl)cc(S(=O)(=O)C2CC2)c1)c1ncnn1-c1ncccn1` [Example I-042], the mortality at 500 g/ha in the test on Spodoptera frugiperda was determined as 83%; in the test on Tetranychus urticae it was 90%. Besides, the pest or weed control at 5 µg/cm2, 5 µg/cm2 with Rhipicephalus sanguineus was 80%. Besides, the mortality at 20 mg/m2 in test [1] is 85 to 100%; in test [3], 80 to 100%. In addition, in test [2], the “efficacy (infertile eggs)” value stood at 100%. For the same compound, in test [3] (surface concentration 4 mg/m^2, 30 minutes exposure), the mortality at 4 mg/m2 lay within 80 to 100%.

In the case of `CCN(C(=O)c1cc(Cl)cc(S(C)(=O)=O)c1)C(C)c1ncnn1-c1ncccn1` (centres unmarked) [Example I-040, 3-chloro-N-ethyl-5-(methylsulfonyl)-N-{1-[1-(pyrimidin-2-yl)-1H-1,2,4-triazol-5-yl]ethyl}benzamide], the mortality at 500 g/ha turned out to be 100% in the test on Spodoptera frugiperda and 90% in the test on Tetranychus urticae. Moreover, the pest or weed control at 5 µg/cm2, 5 µg/cm2 in the test on Rhipicephalus sanguineus was 100%. Also, the mortality at 20 mg/m2 in test [3] lay within 80 to 100%.

The record behind these values is US12187705B2, “Heteroaryl-triazole and heteroaryl-tetrazole compounds as pesticides” (Bayer Aktiengesellschaft, priority 2018, dated 2025).
